Earlier results in US20120035207A1, “Use of GABAA Receptor Agonists for the Treatment of Hearing, Vestibular and Attention Disorders, Intention Tremor and Restless Leg Syndrome” (priority 2003, published 2012).

Molecular target: T1, a4β3δ receptor (Homo sapiens, UniProt P28472+P48169)
T1 construct: host or cells: mouse L(-tk) cells stably expressing the α4β3δ receptor (Brown et al; Adkins et al.)
Conditions: reported by Brown et al, British J. Pharmacol., 136, 965-74 (2002)

T1 sequence (P48169 36-554): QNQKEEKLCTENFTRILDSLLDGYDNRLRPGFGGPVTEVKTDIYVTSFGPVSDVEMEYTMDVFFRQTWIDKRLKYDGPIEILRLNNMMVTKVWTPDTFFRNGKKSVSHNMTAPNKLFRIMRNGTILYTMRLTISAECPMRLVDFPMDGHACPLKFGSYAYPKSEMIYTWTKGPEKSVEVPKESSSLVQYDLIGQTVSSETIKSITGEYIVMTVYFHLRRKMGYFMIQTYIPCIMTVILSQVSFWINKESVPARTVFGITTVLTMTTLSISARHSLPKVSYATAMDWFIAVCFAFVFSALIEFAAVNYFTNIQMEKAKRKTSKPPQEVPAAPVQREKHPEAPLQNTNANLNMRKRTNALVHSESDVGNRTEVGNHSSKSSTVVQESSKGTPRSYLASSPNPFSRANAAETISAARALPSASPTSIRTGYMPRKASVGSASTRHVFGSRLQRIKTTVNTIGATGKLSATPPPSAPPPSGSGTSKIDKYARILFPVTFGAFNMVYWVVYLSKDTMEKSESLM
T1 sequence (P28472 26-473): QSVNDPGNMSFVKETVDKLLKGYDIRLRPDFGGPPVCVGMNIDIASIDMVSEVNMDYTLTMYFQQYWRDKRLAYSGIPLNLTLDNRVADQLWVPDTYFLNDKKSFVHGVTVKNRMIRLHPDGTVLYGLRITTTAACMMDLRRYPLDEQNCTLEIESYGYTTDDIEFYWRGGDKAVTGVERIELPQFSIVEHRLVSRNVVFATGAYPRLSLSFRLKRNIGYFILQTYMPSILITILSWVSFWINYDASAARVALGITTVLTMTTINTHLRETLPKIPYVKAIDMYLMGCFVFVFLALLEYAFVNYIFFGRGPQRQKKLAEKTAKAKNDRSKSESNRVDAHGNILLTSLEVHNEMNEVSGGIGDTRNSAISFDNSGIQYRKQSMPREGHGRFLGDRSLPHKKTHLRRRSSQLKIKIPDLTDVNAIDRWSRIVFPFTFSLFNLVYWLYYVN
T1 sequence (O14764 17-452 partner limits assumed): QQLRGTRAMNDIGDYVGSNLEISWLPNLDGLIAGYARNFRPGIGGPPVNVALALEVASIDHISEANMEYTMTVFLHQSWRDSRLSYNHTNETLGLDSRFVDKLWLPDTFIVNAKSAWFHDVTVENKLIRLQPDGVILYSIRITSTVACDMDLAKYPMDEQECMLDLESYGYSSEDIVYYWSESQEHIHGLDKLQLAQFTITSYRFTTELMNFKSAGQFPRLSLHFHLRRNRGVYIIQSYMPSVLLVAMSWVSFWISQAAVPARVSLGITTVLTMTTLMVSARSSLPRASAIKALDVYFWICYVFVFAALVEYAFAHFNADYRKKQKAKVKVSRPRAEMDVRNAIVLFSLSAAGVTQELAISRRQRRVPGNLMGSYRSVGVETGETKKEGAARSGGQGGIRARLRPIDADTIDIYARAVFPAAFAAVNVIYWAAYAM

Structure (SMILES): Oc1noc2c1CCNC2 [Gaboxadol, 4,5,6,7-tetrahydroisoxazolo[5,4-c]pyridin-3-ol]
- agonist activity at the a4β3δ receptor: potent agonist
